Experimental data reported in EP1117659B1, “SUBSTITUTED 3-CYANOQUINOLINES AS PROTEIN TYROSINE KINASES INHIBITORS” (Wyeth Holdings Corporation, priority 1998, dated 2000).
Values after ≈ are worked out from the molar mass of the structure shown. Values joined by “and” are separate entries in the source; they are usually repeats but may differ in a detail not shown here. Equal values may be shown once. Read-outs that look alike come from different tables or passages of the source. Blank lines part the entries; values can stand above or below the compound they belong to.

Key:
[1] = molecular target: T1, epidermal growth factor receptor kinase (EGF-R Kinase, recombinant enzyme; His-tagged cytoplasmic domain of EGFR) (Homo sapiens, UniProt P00533); assay: Inhibition of Epidermal Growth Factor Receptor Kinase (EGF-R) using recombinant enzyme, RR-SRC peptide phosphorylation, 33P-ATP; format: biochemical; settings: for inhibition at 0.5 µM: read-out: %Inh @ 0.5 µM; for IC50: recombinant enzyme, 90 min at room temperature
T1 construct: EGFR cDNA encoding amino acids 645 - 1186 preceded by Met-Ala-(His)6; Met-Ala-(His)6 (N); made in house; host or cells: Sf9 insect cells, recombinant baculovirus vHcEGFR52
Method: Representative test compounds were evaluated for their ability to inhibit the phosphorylation of the tyrosine residue of a peptide substrate catalyzed by the enzyme epidermal growth factor receptor kinase. The peptide substrate (RR-SRC) has the sequence arg-arg-leu-ile-glu-asp-ala-glu-tyr-ala-ala-arg-gly. The enzyme used in this test procedure is the His-tagged cytoplasmic domain of EGFR. A recombinant baculovirus (vHcEGFR52) was constructed containing the EGFR cDNA encoding amino acids 645 - 1186 preceded by Met-Ala-(His)6. Sf9 cells in 100 mm plates were infected at an moi of 10 pfu/cell and cells were harvested 48 h post infection. A cytoplasmic extract was prepared using 1% Triton X-100 and applied to Ni-NTA column. After washing the column with 20 mM imidazole, HcEGFR was eluted with 250 mM imidazole (in 50 mM Na2HPO4, pH 8.0, 300 mM NaCl). Fractions collected were dialyzed against 10 mM HEPES, pH 7.0, 50 mM NaCl, 10% glycerol, lug/mL antipain and leupeptin and 0.1 mM Pefabloc SC. The protein was frozen in dry ice/methanol and stored -70°C.
Test compounds were made into 10 mg/mL stock solutions in 100% dimethylsulfoxide (DMSO). Prior to experiment, stock solutions were diluted to 500 uM with 100% DMSO and then serially diluted to the desired concentration with HEPES buffer (30 mM HEPES pH 7.4).
For the enzyme reaction, 10 uL of each inhibitor (at various concentrations) were added to each well of a 96-well plate. To this was added 3 uL of enzyme (1:10 dilution in 10mM HEPES, pH 7.4 for final cone. of 1:120). This was allowed to sit for 10 min on ice and was followed by the addition of 5 ul peptide (80 uM final cone.), 10ul of 4X Buffer (Table A), 0.25 uL ^33P-ATP and 12 uL H2O. The reaction was allowed to run for 90 min at room temperature and was followed by spotting the entire volume on to precut P81 filter papers. The filter discs were washed 2X with 0.5% phosphoric acid and radioactivity was measured using a liquid scintillation counter.
The inhibition data for representative compounds of the invention are shown below in TABLE 1. […] The % inhibition of the test compound was determined for at least three different concentrations and the IC50 value was evaluated from the dose response curve. […] CPM(control) is in units of counts per minute and was a number expressing the amount of radiolabled ATP (γ-^33P) incorporated into the RR-SRC peptide substrate by the enzyme after 90 minutes at room temperature in the absence of test compound as measured by liquid scintillation counting. The CPM values were corrected for the background counts produced by ATP in the absence of the enzymatic reaction. […]

3T3/c-erbb2 = assay: Inhibition of Cancer Cell Growth as Measured by Cell Number (Sulforhodamine B); format: cell-based; settings: 48 hours exposure
Method: (§1) Human tumor cell lines were plated in 96-well plates (250 µl/well, 1-6 x 10^4 cells/ml) in RPMI 1640 medium, containing 5% FBS (Fetal Bovine Serum). […] After 48 hours exposure to test compounds, cells were fixed with trichloroacetic acid, and stained with Sulforhodamine B. After washing with trichloroacetic acid, bound dye was solubilized in 10 mM Tris base and optical density was determined using plate reader. Under conditions of the assay the optical density is proportional to the number of cells in the well. […] The test procedure is described in details by Philip Skehan et. al, J.Natl. Canc. Inst., 82, 1107-1112 (1990). […] Information about some of the cell lines used in these test procedures is available from the American Type Tissue Collection: Cell Lines and Hybridomas, 1994 Reference Guide, 8th Edition.

3T3 = assay: as above; format: cell-based; settings: 48 hours exposure; for IC50: Mus musculus, NIH3T3
Method: as §1

[2] = molecular target: T2, Kinase insert Domain containing Receptor (KDR: the catalytic domain of the VEGF receptor) (Homo sapiens, UniProt P35968); assay: Inhibition of Kinase insert Domain containing Receptor (KDR), radioactive phosphorylation of Glu:Tyr copolymer; format: biochemical; settings: IC50, substrate phosphorylation
T2 construct: KDR: the catalytic domain of the VEGF receptor
Method: In this standard pharmacological test procedure, KDR protein is mixed, in the presence or absence of a inhibitor compound, with a substrate peptide to be phosphorylated (a copolymer of glutamic acid and tyrosine, E:Y :: 4:1) and other cofactors such as Mg^++ and sodium vanadate (a protein tyrosine phosphatase inhibitor) in an appropriate buffer to maintain pH (7.2). ATP and a radioactive tracer (either P^32- or P^33- labeled ATP) is then add to initiate phosphorylation. After incubation, the radioactive phosphate associated with the acid-insoluble fraction of the assay mixture is then quantified as reflection of substrate phosphorylation. […] Multiple entries for a given compound indication it was tested multiple times.

SK-BR3 = assay: Inhibition of Cancer Cell Growth as Measured by Cell Number (Sulforhodamine B); format: cell-based, Human; settings: 48 hours exposure; for IC50: Homo sapiens, SK-BR-3, 48 h
Method: as §1

MDA-MB-435 = assay: as above; format: cell-based, Human; settings: 48 hours exposure; for IC50: Homo sapiens, MDA-MB-435, 48 h
Method: as §1

SW620 = assay: as above; format: cell-based, Human; settings: 48 hours exposure; for IC50: Homo sapiens, SW-620, 48 h
Method: as §1

A431 = assay: as above; format: cell-based, Human; settings: 48 hours exposure; for IC50: Homo sapiens, A-431, 48 h
Method: as §1

[3] = molecular target: Recombinant human MEK 1 (MAPKK) / recombinant human ERK2 (MAPK) (Mek-Erk) (Homo sapiens, UniProt P28482+Q02750); assay: Mitogen Activated Protein Kinase (MAPK) assay, two component coupled Mek-Erk test; format: biochemical
[4] = molecular target: Epithelial Cell Kinase (ECK) (Homo sapiens, UniProt P29317); assay: Inhibition of Epithelial Cell Kinase (ECK), immobilized biotinylated peptide, HRP anti-phosphotyrosine readout; format: biochemical; settings: IC50, substrate phosphorylation
Method: In this standard pharmacological test procedure, a biotinylated peptide substrate is first immobilized on neutravidin-coated microtiter plates. The test drug, the Epithelial Cell Kinase (ECK), Mg^++, sodium vanadate (a protein tyrosine phosphatase inhibitor), and an appropriate buffer to maintain pH (7.2) are then added to the immobilized substrate-containing microtiter wells. ATP is then added to initiate phosphorylation. After incubation, the assay plates are washed with a suitable buffer leaving behind phosphorylated peptide which is exposed to horse radish peroxidase (HRP)-conjugated anti-phosphotyrosine monoclonal antibody. The antibody-treated plates are washed again and the HRP activity in individual wells is quantified as a reflection of degree of substrate phosphorylation. […] Multiple entries for a given compound indication it was tested multiple times.

A2780 = assay: Inhibition of Cancer Cell Growth as Measured by Cell Number (Sulforhodamine B); format: cell-based; settings: Homo sapiens, 48 hours exposure
Method: as §1

DDP = assay: as above; format: cell-based; settings: Homo sapiens; 48 hours exposure
Method: as §1

Chain of Epithelial Cell Kinase (ECK) (P29317 24-976, species assumed): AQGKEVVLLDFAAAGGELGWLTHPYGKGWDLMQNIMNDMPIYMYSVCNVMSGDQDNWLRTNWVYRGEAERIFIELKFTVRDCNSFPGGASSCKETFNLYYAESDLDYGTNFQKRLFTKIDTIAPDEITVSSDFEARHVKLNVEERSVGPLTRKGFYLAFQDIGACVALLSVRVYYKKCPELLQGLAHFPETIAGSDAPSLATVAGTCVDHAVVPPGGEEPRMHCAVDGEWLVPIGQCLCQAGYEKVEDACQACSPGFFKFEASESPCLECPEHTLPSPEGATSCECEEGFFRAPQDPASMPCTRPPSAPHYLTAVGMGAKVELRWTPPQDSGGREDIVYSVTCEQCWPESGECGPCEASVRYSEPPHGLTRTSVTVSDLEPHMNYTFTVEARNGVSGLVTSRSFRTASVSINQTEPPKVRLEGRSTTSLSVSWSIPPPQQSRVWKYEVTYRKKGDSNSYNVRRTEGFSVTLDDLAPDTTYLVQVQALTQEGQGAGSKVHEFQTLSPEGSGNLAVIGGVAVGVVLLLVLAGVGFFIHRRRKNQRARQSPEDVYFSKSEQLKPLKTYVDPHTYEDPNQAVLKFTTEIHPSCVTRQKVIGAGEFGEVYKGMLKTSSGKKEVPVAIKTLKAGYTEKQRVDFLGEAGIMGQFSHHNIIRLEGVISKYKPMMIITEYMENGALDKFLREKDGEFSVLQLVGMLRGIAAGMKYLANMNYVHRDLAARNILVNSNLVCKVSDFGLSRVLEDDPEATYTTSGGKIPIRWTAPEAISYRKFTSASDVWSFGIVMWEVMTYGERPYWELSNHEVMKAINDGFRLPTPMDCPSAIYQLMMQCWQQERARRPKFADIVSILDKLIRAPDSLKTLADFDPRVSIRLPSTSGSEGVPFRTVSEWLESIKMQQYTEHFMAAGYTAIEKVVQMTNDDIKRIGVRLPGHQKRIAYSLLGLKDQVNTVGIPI
T1 sequence (P00533 669-1210): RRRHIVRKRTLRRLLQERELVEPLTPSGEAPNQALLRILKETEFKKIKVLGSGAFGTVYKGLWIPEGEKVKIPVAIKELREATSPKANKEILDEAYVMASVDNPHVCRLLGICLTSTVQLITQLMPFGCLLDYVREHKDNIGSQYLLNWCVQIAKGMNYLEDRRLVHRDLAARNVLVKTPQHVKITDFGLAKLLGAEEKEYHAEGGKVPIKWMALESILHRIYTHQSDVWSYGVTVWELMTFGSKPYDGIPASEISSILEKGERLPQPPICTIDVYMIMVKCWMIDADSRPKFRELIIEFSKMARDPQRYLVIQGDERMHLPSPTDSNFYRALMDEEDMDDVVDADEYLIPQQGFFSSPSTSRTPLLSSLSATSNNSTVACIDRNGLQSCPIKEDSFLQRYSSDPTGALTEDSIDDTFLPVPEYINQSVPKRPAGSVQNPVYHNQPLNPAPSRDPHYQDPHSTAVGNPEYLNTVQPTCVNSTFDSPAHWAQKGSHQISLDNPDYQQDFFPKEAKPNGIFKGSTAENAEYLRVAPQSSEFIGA
T2 sequence (P35968 834-1162 limits assumed): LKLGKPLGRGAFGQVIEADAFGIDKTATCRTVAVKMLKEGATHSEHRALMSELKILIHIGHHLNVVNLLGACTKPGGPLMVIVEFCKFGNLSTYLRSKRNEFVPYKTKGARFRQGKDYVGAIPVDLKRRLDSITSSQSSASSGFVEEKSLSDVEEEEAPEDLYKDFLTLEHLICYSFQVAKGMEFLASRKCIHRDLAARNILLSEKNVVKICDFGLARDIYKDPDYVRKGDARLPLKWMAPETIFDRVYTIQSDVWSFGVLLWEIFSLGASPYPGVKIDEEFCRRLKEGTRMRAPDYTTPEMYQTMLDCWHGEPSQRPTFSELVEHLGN

Compound: CCOc1cc2ncc(C#N)c(Nc3ccc4c(c3)C(=O)OC4)c2cc1OCC [Example 111, 6,7-Diethoxy-4-(3-oxo-1,3-dihydro-isobenzofuran-5-ylamino)-quinoline-3-carbonitrile]
inhibition at 0.5 µM [1]: 10%
IC50 [1]: > 1 µM
IC50 (3T3/c-erbb2): 3.3 µg/mL (≈ 8.48 µM)
IC50 (3T3): > 5 µg/mL
IC50 [2]: > 77 µM
IC50 (SK-BR3): > 5 µg/mL
IC50 (MDA-MB-435): 3.4 µg/mL (≈ 8.74 µM)
IC50 (SW620): 1.56 µg/mL (≈ 4.02 µM)
IC50 (A431): > 5 µg/mL
IC50 ([3]; read-out: Mek-Erk µM): > 100 µM
IC50 [4]: > 51.4 µM

Compound: CCOc1cc2ncc(C#N)c(Nc3ccc4cn[nH]c4c3)c2cc1OC [Example 115, 7-Ethoxy-4-(indazol-6-ylamino)-6-methoxy-quinoline-3-carbonitrile]
inhibition at 0.5 µM [1]: 49%
IC50 [1]: > 0.5 µM
IC50 (3T3/c-erbb2): 0.0267 µg/mL (≈ 0.0743 µM)
IC50 (3T3): 0.344 µg/mL (≈ 0.957 µM)
IC50 [2]: 5.56 µM and > 2.78 µM
IC50 (SK-BR3): 0.022 µg/mL (≈ 0.0612 µM)
IC50 (MDA-MB-435): 0.0359 µg/mL (≈ 0.0999 µM)
IC50 (SW620): 0.0212 µg/mL (≈ 0.059 µM)
IC50 (A431): 0.0368 µg/mL (≈ 0.102 µM)
IC50 ([3]; read-out: Mek-Erk): 25 µM
IC50 [4]: > 27.8 µM

Compound: 6,7-Diethoxy-4-(1-oxo-indan-5-ylamino)-quinoline-3-carbonitrile [Example 110]
IC50 µg/mL 3T3/c-erbb2 (3T3/c-erbb2): 0.0311 µg/mL
IC50 µg/mL 3T3 (3T3): 0.0923 µg/mL
IC50 µg/mL SK-BR3 (SK-BR3): 0.0281 µg/mL
IC50 µg/mL MDA-MB-435 (MDA-MB-435): 0.0280 µg/mL
IC50 µg/mL SW620 (SW620): 0.0181 µg/mL
IC50 µg/mL A431 (A431): 0.0244 µg/mL
IC50 ([3]; read-out: Mek-Erk): > 100 µM and 50 µM

Compound: CCOc1cc2ncc(C#N)c(Nc3ccc4c(C)cc(=O)oc4c3)c2cc1OCC [Example 100, 6,7-Diethoxy-4-(4-methyl-2-oxo-2H-chromen-7-ylamino)-quinoline-3-carbonitrile]
IC50 (A2780): 0.27 µg/mL (≈ 0.65 µM)
IC50 (DDP): 0.249 µg/mL (≈ 0.599 µM)
IC50 [2]: > 72.3 µM
IC50 (SK-BR3): 0.429 µg/mL (≈ 1.03 µM)
IC50 (MDA-MB-435): 0.067 µg/mL (≈ 0.161 µM)
IC50 (SW620): 0.325 µg/mL (≈ 0.782 µM)
IC50 (A431): 0.369 µg/mL (≈ 0.888 µM)
IC50 ([3]; read-out: Mek-Erk): 3.5 µM
IC50 [4]: > 48.2 µM

The next lines start with results.

IC50 (A2780): 1.49 µg/mL (≈ 4.32 µM)
IC50 (DDP): 3.05 µg/mL (≈ 8.84 µM)
IC50 [2]: 14.1 µM
IC50 (SK-BR3): 0.78 µg/mL (≈ 2.26 µM)
IC50 (MDA-MB-435): 0.49 µg/mL (≈ 1.42 µM)
IC50 (SW620): 2.18 µg/mL (≈ 6.31 µM)
IC50 (A431): 1.31 µg/mL (≈ 3.79 µM)
IC50 [4]: > 56.4 µM
Compound: COc1cc2ncc(C#N)c(Nc3ccc4cn[nH]c4c3)c2cc1OC [Example 102, 6,7-Dimethoxy-4-(1H-indazol-6-ylamino)-quinoline-3-carbonitrile]

IC50 [2]: > 71.2 µM
IC50 (SK-BR3): 0.336 µg/mL (≈ 0.797 µM)
IC50 (MDA-MB-435): 0.0033 µg/mL (≈ 0.00783 µM)
IC50 (SW620): 0.146 µg/mL (≈ 0.346 µM)
IC50 (A431): 0.257 µg/mL (≈ 0.61 µM)
IC50 ([3]; read-out: Mek-Erk): > 100 µM
IC50 [4]: > 47.5 µM
Compound: CCOc1cc2ncc(C#N)c(Nc3ccc4c(c3)S(=O)(=O)C=C4)c2cc1OCC [Example 112, 4-(1,1-Dioxo-1H-benzo[b]thiophen-6-ylamino)-6,7-diethoxy-quinoline-3-carbonitrile]
IC50 (3T3/c-erbb2): 0.251 µg/mL (≈ 0.596 µM)
IC50 (3T3): 0.392 µg/mL (≈ 0.93 µM)
